Laboratory results published in patent US10040759B2, “Substituted azetidinyl compounds as GlyT1 inhibitors” (DART NEUROSCIENCE (CAYMAN) LTD., priority 2014, dated 2018).

Target: T1, GlyT1 (Homo sapiens, UniProt P48067)
T1 construct: expressed in transfected cells
T1 sequence (P48067 1-706): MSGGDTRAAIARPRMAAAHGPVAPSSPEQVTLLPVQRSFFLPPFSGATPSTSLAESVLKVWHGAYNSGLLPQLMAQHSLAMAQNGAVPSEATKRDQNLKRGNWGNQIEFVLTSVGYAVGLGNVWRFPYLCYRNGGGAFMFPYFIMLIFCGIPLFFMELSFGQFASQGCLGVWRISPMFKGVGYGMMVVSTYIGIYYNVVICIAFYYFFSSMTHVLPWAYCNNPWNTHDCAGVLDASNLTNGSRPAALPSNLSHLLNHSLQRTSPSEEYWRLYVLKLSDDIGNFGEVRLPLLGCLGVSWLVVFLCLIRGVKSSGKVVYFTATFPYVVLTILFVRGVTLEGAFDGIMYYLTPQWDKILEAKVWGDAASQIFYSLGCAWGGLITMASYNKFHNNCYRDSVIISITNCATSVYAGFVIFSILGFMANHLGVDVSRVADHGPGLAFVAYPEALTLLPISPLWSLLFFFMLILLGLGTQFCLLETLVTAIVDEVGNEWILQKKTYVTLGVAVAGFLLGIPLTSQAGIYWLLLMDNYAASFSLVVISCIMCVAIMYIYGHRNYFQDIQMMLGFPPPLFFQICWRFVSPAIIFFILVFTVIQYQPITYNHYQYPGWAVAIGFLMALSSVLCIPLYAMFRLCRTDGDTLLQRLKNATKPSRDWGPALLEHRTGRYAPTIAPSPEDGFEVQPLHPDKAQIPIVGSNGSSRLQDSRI
Test: Glycine Transporter 1 (GlyT1) uptake assay, scintillation proximity assay of [14C]-glycine uptake
Assay type: cell-based
Settings: [14C]-glycine uptake; read-out: GlyT1 (pIC50) (converted)
Procedure: Glycine Transporter 1 (GlyT1) Uptake Assay
HEK293 cells stably expressing hGlyT1c were plated onto 96-well Cytostar plates at a density of 4.5×10^4 cells per well in 100 μL of growth media (DMEM containing 10% fetal bovine serum) and incubated overnight in a 37° C., 10% CO2 incubator. The following day, stock compounds in 10 mM DMSO were serially diluted in DMSO, and 2× compound solutions were prepared by diluting compound again (1:100) in HBSS. […] Plates were then read on a MicroBeta plate counter (Perkin Elmer). Dose-response data for tested compounds were analyzed and curves were fit using a four parameter logistic fit to determine IC50 values. […]

COc1c(C#N)ccc(O[C@H](C)C(F)(F)F)c1C(=O)N1CC(c2ccc(C(F)(F)F)cn2)C1 [Example 135, 2-Methoxy-3-{3-[5-(trifluoromethyl)pyridin-2-yl]azetidine-1-carbonyl}-4-{[(2R)-1,1,1-trifluoropropan-2-yl]oxy}benzonitrile] and COc1c(C#N)ccc(O[C@@H](C)C(F)(F)F)c1C(=O)N1CC(c2ccc(C(F)(F)F)cn2)C1 [Example 34, 2-Methoxy-3-({3-[5-(trifluoromethyl)pyridin-2-yl]azetidin-1-yl}carbonyl)-4-{[(2S)-1,1,1-trifluoropropan-2-yl]oxy}benzonitrile] fall in the same range of IC50: 100 to 1000 nM for the first, 100 to 1000 nM for the second.

Compared with COc1c(C#N)ccc(OC(C)C(F)(F)F)c1C(=O)N1CC(c2ccccn2)C1 (centres unmarked) [Example 93, 2-Methoxy-3-{[3-(pyridin-2-yl)azetidin-1-yl]carbonyl}-4-[(1,1,1-trifluoropropan-2-yl)oxy]benzonitrile], COc1c(C#N)ccc(O[C@@H](C)C(F)(F)F)c1C(=O)N1CC(c2ccc(F)cc2)C1 [Example 52, 3-[3-(4-Fluorophenyl)azetidine-1-carbonyl]-2-methoxy-4-{[(2S)-1,1,1-trifluoropropan-2-yl]oxy}benzonitrile] is higher in IC50: less than 100 nM for the first, 100 to 1000 nM for the second.

First: COc1c(S(C)(=O)=O)ccc(O[C@@H](C)C(F)(F)F)c1C(=O)N1CC(Oc2ccc(F)c(C)c2)C1 [Example 43, 3-(4-Fluoro-3-methylphenoxy)-1-(3-methanesulfonyl-2-methoxy-6-{[(2S)-1,1,1-trifluoropropan-2-yl]oxy}benzoyl)azetidine]
Second: COc1c(S(C)(=O)=O)ccc(O[C@@H](C)C(F)(F)F)c1C(=O)N1CC(Oc2cccc(C)c2)C1 [Example 47, 1-(3-Methanesulfonyl-2-methoxy-6-{[(2S)-1,1,1-trifluoropropan-2-yl]oxy}benzoyl)-3-(3-methylphenoxy)azetidine]
The IC50 of the first is lower: 100 to 1000 nM for the first, 1000 to 10000 nM for the second.

Compared with COc1c(C#N)ccc(OCC2CC2)c1C(=O)N1CC(c2ccc(C#N)cc2)C1 [Example 173, 3-{[3-(4-Cyanophenyl)azetidin-1-yl]carbonyl}-4-(cyclopropylmethoxy)-2-methoxybenzonitrile], COc1c(C#N)ccc(O[C@@H](C)C(F)(F)F)c1C(=O)N1CC(c2ccc(C#N)cc2)C1 [Example 108, 3-{[3-(4-Cyanophenyl)azetidin-1-yl]carbonyl}-2-methoxy-4-{[(2S)-1,1,1-trifluoropropan-2-yl]oxy}benzonitrile] is higher in IC50: less than 100 nM for the first, 1000 to 10000 nM for the second.

First: CCS(=O)(=O)c1ccc(OC(C)C)c(C(=O)N2CC(Oc3cc(F)c(F)cc3F)C2)c1OC [Example 245, 1-[3-(Ethanesulfonyl)-2-methoxy-6-(propan-2-yloxy)benzoyl]-3-(2,4,5-trifluorophenoxy)azetidine]
Second: CCS(=O)(=O)c1ccc(OC(C)C)c(C(=O)N2CC(c3ncc(C(F)(F)F)cc3Cl)C2)c1OC [Example 243, 3-Chloro-2-{1-[3-(ethanesulfonyl)-2-methoxy-6-(propan-2-yloxy)benzoyl]azetidin-3-yl}-5-(trifluoromethyl)pyridine]
The IC50 of the first is lower: less than 100 nM for the first, 100 to 1000 nM for the second.

First: COc1c(S(C)(=O)=O)ccc(OCC(C)(C)C)c1C(=O)N1CC(Oc2c(F)cc(F)cc2F)C1 [Example 240, 1-[6-(2,2-Dimethylpropoxy)-3-methanesulfonyl-2-methoxybenzoyl]-3-(2,4,6-trifluorophenoxy)azetidine]
Second: COc1c(S(C)(=O)=O)ccc(O[C@@H](C)C(F)(F)F)c1C(=O)N1CC(Oc2c(C)cccc2C)C1 [Example 45, 3-(2,6-Dimethylphenoxy)-1-(3-methanesulfonyl-2-methoxy-6-{[(2S)-1,1,1-trifluoropropan-2-yl]oxy}benzoyl)azetidine]
The IC50 of the first is lower: 100 to 1000 nM for the first, 1000 to 10000 nM for the second.

Cc1ccc(OC2CN(C(=O)c3c(OC(C)C(F)(F)F)ccc(C#N)c3Cl)C2)cc1 (centres unmarked) [Example 77, 2-Chloro-3-{[3-(4-methylphenoxy)azetidin-1-yl]carbonyl}-4-[(1,1,1-trifluoropropan-2-yl)oxy]benzonitrile] and CC(Oc1ccc(C#N)c(Cl)c1C(=O)N1CC(Oc2ccccc2)C1)C(F)(F)F (centres unmarked) [Example 76, 2-Chloro-3-[(3-phenoxyazetidin-1-yl)carbonyl]-4-[(1,1,1-trifluoropropan-2-yl)oxy]benzonitrile] fall in the same range of IC50: 1000 to 10000 nM for the first, 1000 to 10000 nM for the second.

Compared with COc1c(S(C)(=O)=O)ccc(O[C@@H](C)C(F)(F)F)c1C(=O)N1CC(Oc2ccccc2C)C1 [Example 48, 1-(3-Methanesulfonyl-2-methoxy-6-{[(2S)-1,1,1-trifluoropropan-2-yl]oxy}benzoyl)-3-(2-methylphenoxy)azetidine], COc1c(S(C)(=O)=O)ccc(O[C@@H](C)C(F)(F)F)c1C(=O)N1CC(Oc2cccc(C(F)(F)F)c2)C1 [Example 44, 1-(3-Methanesulfonyl-2-methoxy-6-{[(2S)-1,1,1-trifluoropropan-2-yl]oxy}benzoyl)-3-[3-(trifluoromethyl)phenoxy]azetidine] is lower in IC50: 1000 to 10000 nM for the first, 100 to 1000 nM for the second.

First: COc1c(C#N)ccc(O[C@@H](C)C(F)(F)F)c1C(=O)N1CC(c2ccc(C#N)c(F)c2)C1 [Example 116, 3-{[3-(4-Cyano-3-fluorophenyl)azetidin-1-yl]carbonyl}-2-methoxy-4-{[(2S)-1,1,1-trifluoropropan-2-yl]oxy}benzonitrile]
Second: COc1c(C#N)ccc(O[C@@H](C)C(F)(F)F)c1C(=O)N1CC(c2ccc(F)c(F)c2)C1 [Example 51, 3-[3-(3,4-Difluorophenyl)azetidine-1-carbonyl]-2-methoxy-4-{[(2S)-1,1,1-trifluoropropan-2-yl]oxy}benzonitrile]
The IC50 of the first is lower: less than 100 nM for the first, 1000 to 10000 nM for the second.

COc1c(S(C)(=O)=O)ccc(OC(C)C)c1C(=O)N1CC(c2ccc3ncoc3c2)C1 [Example 248, 6-{1-[3-Methanesulfonyl-2-methoxy-6-(propan-2-yloxy)benzoyl]azetidin-3-yl}-1,3-benzoxazole] and COc1c(C#N)ccc(O[C@@H](C)C(F)(F)F)c1C(=O)N1CC(c2ccc3ncoc3c2)C1 [Example 130, 3-{[3-(1,3-Benzoxazol-6-yl)azetidin-1-yl]carbonyl}-2-methoxy-4-{[(2S)-1,1,1-trifluoropropan-2-yl]oxy}benzonitrile] cannot be ordered by IC50: less than 100 nM for the first, less than 100 nM for the second.

First: COc1c(C#N)ccc(OC(C)C(F)(F)F)c1C(=O)N1CC(Oc2ccc(F)c(F)c2)C1 (centres unmarked) [Example 67, 3-{[3-(3,4-Difluorophenoxy)azetidin-1-yl]carbonyl}-2-methoxy-4-[(1,1,1-trifluoropropan-2-yl)oxy]benzonitrile]
Second: COc1c(C#N)ccc(O[C@@H](C)C(F)(F)F)c1C(=O)N1CC(Oc2ccc(Cl)cc2)C1 [Example 29, 3-{[3-(4-Chlorophenoxy)azetidin-1-yl]carbonyl}-2-methoxy-4-{[(2S)-1,1,1-trifluoropropan-2-yl]oxyl}benzonitrile]
The IC50 of the first is higher: 1000 to 10000 nM for the first, less than 100 nM for the second.

COc1c(C#N)ccc(OC(C)C(F)(F)F)c1C(=O)N1CC(c2ccc(F)cc2)C1 (centres unmarked) [Example 91, 3-{[3-(4-Fluorophenyl)azetidin-1-yl]carbonyl}-2-methoxy-4-[(1,1,1-trifluoropropan-2-yl)oxy]benzonitrile] and COc1c(C#N)ccc(O[C@@H](C)C(F)(F)F)c1C(=O)N1CC(c2ccc(F)cc2C#N)C1 [Example 127, 3-{[3-(2-Cyano-4-fluorophenyl)azetidin-1-yl]carbonyl}-2-methoxy-4-{[(2S)-1,1,1-trifluoropropan-2-yl]oxy}benzonitrile] cannot be ordered by IC50: less than 100 nM for the first, less than 100 nM for the second.

COc1c(C#N)ccc(C2(F)CCC(F)(F)CC2)c1C(=O)N1CC(c2ccc(C#N)cc2Cl)C1 [Example 133, 3-{[3-(2-Chloro-4-cyanophenyl)azetidin-1-yl]carbonyl}-2-methoxy-4-(1,4,4-trifluorocyclohexyl)benzonitrile] and COc1c(C#N)ccc(C2CCCC2)c1C(=O)N1CC(c2ccc(C(F)(F)F)cn2)C1 [Example 12, 4-Cyclopentyl-2-methoxy-3-{3-[5-(trifluoromethyl)pyridin-2-yl]azetidine-1-carbonyl}benzonitrile] cannot be ordered by IC50: less than 100 nM for the first, less than 100 nM for the second.

COc1c(S(C)(=O)=O)ccc(OC(C)C)c1C(=O)N1CC(Oc2ccc(C(F)(F)F)cc2)C1 [Example 218, 1-[3-Methanesulfonyl-2-methoxy-6-(propan-2-yloxy)benzoyl]-3-[4-(trifluoromethyl)phenoxy]azetidine] and COc1c(S(C)(=O)=O)ccc(OCC(F)(F)F)c1C(=O)N1CC(Oc2ccc(C(F)(F)F)cc2)C1 [Example 223, 1-[3-Methanesulfonyl-2-methoxy-6-(2,2,2-trifluoroethoxy)benzoyl]-3-[4-(trifluoromethyl)phenoxy]azetidine] fall in the same range of IC50: 100 to 1000 nM for the first, 100 to 1000 nM for the second.

COc1c(S(C)(=O)=O)ccc(O[C@@H](C)C(F)(F)F)c1C(=O)N1CC(c2cc(F)ccc2F)C1 [Example 41, 3-(2,5-Difluorophenyl)-1-(3-methanesulfonyl-2-methoxy-6-{[(2S)-1,1,1-trifluoropropan-2-yl]oxy}benzoyl)azetidine] showed an IC50 of 100 to 1000 nM.
